From patent publication US20160244404A1, “OPTICAL ISOMERS OF (+) AND (-)-BENZHYDRYL UREAS AND (+) AND (-)-1-[(3-CHLOROPHENYL)-PHENYL-METHYL] UREA, A PHARMACEUTICAL COMPOSITION BASED THEREON AND A METHOD FOR PRODUCING SAID OPTICAL ISOMERS” (priority 2013, published 2016)
Marks after values point to notes of the source that are not given here.

Key:
[1] = test system: convulsions induced by pentylenetetrazol; assay: Anticonvulsant potency against convulsions induced by pentylenetetrazol; assay type: in vivo; settings: for Protection against stage 3 convulsions (% protection) / Protection against stage 4 convulsions (% protection) / Protection against stage 5 convulsions (% protection) / convulsive manifestations (points) induced by pentylenetetrazol (X ± SE): n = 10; for convulsive manifestations (points) induced by pentylenetetrazol (X ± SE): five-point scale; for mean convulsions score compared with that of the reference sample: all doses studied: 100 mg/kg, 150 mg/kg, 250 mg/kg; for anticonvulsive potency compared with the reference substance: on the basis of mean convulsions scores, 100, 150, 250 mg/kg
Method: (§1) Convulsions were induced by the administration of pentylenetetrazol. The severity (stage) of the convulsions was rated on a five-point scale. The anticonvulsant potency was rated on the basis of the substance's ability to reduce the severity of convulsions induced by the pentylenetetrazol. Halodif substances were administered intragastrically over 2 hr prior to the pentylenetetrazol. The pentylenetetrazol was administered subcutaneously. Probit analysis was used for statistical processing of the results with Student's test, ANOVA and criterion x. The differences in the results were considered statistically reliable at a significance level of p<0.05.
In the second phase the anticonvulsant potency of the reference substance was study in doses of 50 mg/kg, 100 mg/kg, 150 mg/kg, 200 mg/kg and 500 mg/kg (Table 2). The reference substance was racemic halodif. […] The halodif reference substance was used in doses of 50 mg/kg, 100 mg/kg, 150 mg/kg, 200 mg/kg and 500 mg/kg. Two hours after the halodif substance was administered to the animals the pentylenetetrazol (110 mg/kg) was administered and stage 3 and stage 5 convulsions were rated.
Samples were compared on the basis of the mean score for convulsive manifestations induced by pentylenetetrazol after administration of the samples under study.
The anticonvulsive potency of the samples of the halodif substance under study were also compared with respect to the proportion of animals in which the substance under study prevented the development of convulsions of differing severity induced by pentylenetetrazol. Table 4 presents the results expressed as the percentage of animals in which no convulsions of the specified stage developed (% protection).

[2] = test system: animals; assay: Establishing the convulsion-inducing dose of pentylenetetrazol; assay type: in vivo
Method: as §1
In the first phase of the study the optimum convulsion-inducing dose of pentylenetetrazol, CD97, which was 110 mg/kg (Table 1) was established.

[3] = doses of 100 mg/kg and 150 mg/kg, stages 3 and 4
[4] = reference substance 50 mg/kg intragastrically 2 h before pentylenetetrazol 110 mg/kg
[5] = reference substance 100 mg/kg intragastrically 2 h before pentylenetetrazol 110 mg/kg
[6] = reference substance 150 mg/kg intragastrically 2 h before pentylenetetrazol 110 mg/kg
[7] = reference substance 200 mg/kg intragastrically 2 h before pentylenetetrazol 110 mg/kg
[8] = reference substance 500 mg/kg intragastrically 2 h before pentylenetetrazol 110 mg/kg
[9] = sample dose 100 mg/kg 2 hours before pentylenetetrazol 110 mg/kg
[10] = sample dose 100 mg/kg intragastrically 2 hours before pentylenetetrazol 110 mg/kg
[11] = sample dose 150 mg/kg 2 hours before pentylenetetrazol 110 mg/kg
[12] = sample dose 150 mg/kg intragastrically 2 hours before pentylenetetrazol 110 mg/kg
[13] = sample dose 250 mg/kg 2 hours before pentylenetetrazol 110 mg/kg
[14] = sample dose 250 mg/kg intragastrically 2 hours before pentylenetetrazol 110 mg/kg
[15] = sample dose 100 mg/kg 2 hours before pentylenetetrazol 110 mg/kg, listed as Sample 2/(−) isomer
[16] = sample dose 150 mg/kg 2 hours before pentylenetetrazol 110 mg/kg, listed as Sample 2/(−) isomer
[17] = sample dose 250 mg/kg 2 hours before pentylenetetrazol 110 mg/kg, listed as Sample 2/(−) isomer
[18] = pentylenetetrazol dose 90, 5 animals in the group
[19] = pentylenetetrazol dose 100, 5 animals in the group
[20] = pentylenetetrazol dose 110, 5 animals in the group
[21] = sample dose 100 mg/kg 2 hours before pentylenetetrazol 110 mg/kg, listed as Sample 4/(+) isomer
[22] = sample dose 250 mg/kg 2 hours before pentylenetetrazol 110 mg/kg, listed as Sample 4/(+)isomer

## NC(=O)NC(c1ccccc1)c1cccc(Cl)c1 (racemic) [Reference sample, 1-[(3-chlorophenyl)-phenyl-methyl]urea, reference compound]
[1]; dose 200 mg/kg and higher, pentylenetetrazol 110 mg/kg
  appearance of stage 5 convulsions: completely prevented
[1]; [3]
  protection compared with samples 1 and 2 ((−)-isomer of halodif): reliably higher protection
  protection compared with samples 3 and 4 ((+)-isomer of halodif): reliably lower protection
[1]; lowest dose (50 mg/kg), pentylenetetrazol 110 mg/kg
  animals protected from tonic convulsions in all extremities (stage 5): 20%
[1]; [4]
  Proportion of animals with stage 3 convulsions (%, n = 5): 100%
  Proportion of animals with stage 5 convulsions (%, n = 5): 80%
[1]; [5]
  Proportion of animals with stage 3 convulsions (%, n = 5): 100%
  Proportion of animals with stage 5 convulsions (%, n = 5): 20%
[1]; [6]
  Proportion of animals with stage 3 convulsions (%, n = 5): 70%
  Proportion of animals with stage 5 convulsions (%, n = 5): 10%
[1]; [7]
  Proportion of animals with stage 3 convulsions (%, n = 5): 60%
  Proportion of animals with stage 5 convulsions (%, n = 5): 0%
[1]; [8]
  Proportion of animals with stage 3 convulsions (%, n = 5): 60%
  Proportion of animals with stage 5 convulsions (%, n = 5): 0%
[1]; [9]
  Protection against stage 3 convulsions (% protection): 20%
  Protection against stage 4 convulsions (% protection): 50%
  Protection against stage 5 convulsions (% protection): 80%
[1]; [10]
  convulsive manifestations (points) induced by pentylenetetrazol (X ± SE): 3.5 ± 0.31 points
[1]; [11]
  Protection against stage 3 convulsions (% protection): 30%
  Protection against stage 4 convulsions (% protection): 70%
  Protection against stage 5 convulsions (% protection): 90%
[1]; [12]
  convulsive manifestations (points) induced by pentylenetetrazol (X ± SE): 2.9 ± 0.28 points
[1]; [13]
  Protection against stage 3 convulsions (% protection): 50%
  Protection against stage 4 convulsions (% protection): 80%
  Protection against stage 5 convulsions (% protection): 100%
[1]; [14]
  convulsive manifestations (points) induced by pentylenetetrazol (X ± SE): 2.6 ± 0.33 points
[1]; starting at a dose of 150 mg/kg, pentylenetetrazol 110 mg/kg
  animals in which development of clonic convulsions (stage 3 convulsions) was prevented: 30-40%

## NC(=O)NC(c1ccccc1)c1cccc(Cl)c1 (single isomer, unassigned; (-)) [Sample 1/(−) isomer, (−)-1-[(3-chlorophenyl)-phenyl-methyl]urea]
[1]
  mean convulsions score compared with that of the reference sample: higher
  anticonvulsive potency compared with the reference substance: less anticonvulsive potency
[1]; [9]
  Protection against stage 3 convulsions (% protection): 10%
  Protection against stage 4 convulsions (% protection): 40%
  Protection against stage 5 convulsions (% protection): 60* %
[1]; [15]
  Protection against stage 4 convulsions (% protection): 20* %
  Protection against stage 5 convulsions (% protection): 70%
[1]; [10]
  convulsive manifestations (points) induced by pentylenetetrazol (X ± SE): 3.8 ± 0.39 points
[1]; sample dose 100 mg/kg intragastrically 2 hours before pentylenetetrazol 110 mg/kg, listed as Sample 2/(−) isomer
  convulsive manifestations (points) induced by pentylenetetrazol (X ± SE): 4.1 ± 0.23 points
[1]; sample dose 100 mg/kg intragastrically 2 hours before pentylenetetrazol 110 mg/kg, listed as sample 1
  convulsive manifestations (points) induced by pentylenetetrazol (X ± SE): 3.8±0.39 points
[1]; [11]
  Protection against stage 3 convulsions (% protection): 20%
  Protection against stage 4 convulsions (% protection): 70%
  Protection against stage 5 convulsions (% protection): 80%
[1]; [16]
  Protection against stage 3 convulsions (% protection): 10%
  Protection against stage 4 convulsions (% protection): 40* %
  Protection against stage 5 convulsions (% protection): 70%
[1]; [12]
  convulsive manifestations (points) induced by pentylenetetrazol (X ± SE): 2.9 ± 0.29 points
[1]; sample dose 150 mg/kg intragastrically 2 hours before pentylenetetrazol 110 mg/kg, listed as Sample 2/(−) isomer
  convulsive manifestations (points) induced by pentylenetetrazol (X ± SE): 3.5 ± 0.22 points
[1]; [13]
  Protection against stage 3 convulsions (% protection): 40%
  Protection against stage 4 convulsions (% protection): 80%
  Protection against stage 5 convulsions (% protection): 100%
[1]; [17]
  Protection against stage 3 convulsions (% protection): 30%
  Protection against stage 4 convulsions (% protection): 70%
[1]; [14]
  convulsive manifestations (points) induced by pentylenetetrazol (X ± SE): 2.8 ± 0.41 points
[1]; sample dose 250 mg/kg intragastrically 2 hours before pentylenetetrazol 110 mg/kg, listed as Sample 2/(−) isomer
  convulsive manifestations (points) induced by pentylenetetrazol (X ± SE): 3.0 ± 0.37 points
[1]; sample dose 250 mg/kg intragastrically 2 hours before pentylenetetrazol 110 mg/kg, listed as sample 1
  convulsive manifestations (points) induced by pentylenetetrazol (X ± SE): 2.8±0.41 points

## C1CCc2nnnn2CC1 [Pentylenetetrazol, pentylenetetrazol]
[2]; pentylenetetrazol dose 80 (no unit in table; mg/kg), 5 animals in the group
  Number of animals with stage 3 convulsions: 0
[2]; pentylenetetrazol dose 80, 5 animals in the group
  Proportion of animals with stage 3 (%): 0%
[2]; [18]
  Number of animals with stage 3 convulsions: 3
  Proportion of animals with stage 3 (%): 60%
[2]; [19]
  Number of animals with stage 3 convulsions: 4
  Proportion of animals with stage 3 (%): 80%
[2]; [20]
  Number of animals with stage 3 convulsions: 4
  Proportion of animals with stage 3 (%): 80%
[2]; subcutaneous
  optimum convulsion-inducing dose of pentylenetetrazol, CD97: 110 mg/kg

## NC(=O)N[C@H](c1ccccc1)c1cccc(Cl)c1 [Sample 3/(+) isomer, (+)-1-[(3-chlorophenyl)-phenyl-methyl]urea]
[1]
  mean convulsions score compared with that of the reference sample: lower convulsions score
  anticonvulsive potency compared with the reference substance: more anticonvulsive potency
[1]; all stages (3, 4 and 5)
  protection against convulsions, comparison of the samples: greater protection
[1]; in vivo
  anticonvulsive potency compared with its optical antipode: higher anticonvulsive potency
[1]; [9]
  Protection against stage 3 convulsions (% protection): 30%
  Protection against stage 4 convulsions (% protection): 60%
  Protection against stage 5 convulsions (% protection): 80%
[1]; [21]
  Protection against stage 3 convulsions (% protection): 20%
  Protection against stage 4 convulsions (% protection): 80%
  Protection against stage 5 convulsions (% protection): 100%
[1]; [10]
  convulsive manifestations (points) induced by pentylenetetrazol (X ± SE): 3.2 ± 0.42 points
[1]; sample dose 100 mg/kg intragastrically 2 hours before pentylenetetrazol 110 mg/kg, listed as Sample 4/(+) isomer
  convulsive manifestations (points) induced by pentylenetetrazol (X ± SE): 3.0 ± 0.21 points
[1]; [11]
  Protection against stage 3 convulsions (% protection): 40%
  Protection against stage 4 convulsions (% protection): 90%
  Protection against stage 5 convulsions (% protection): 100%
[1]; sample dose 150 mg/kg 2 hours before pentylenetetrazol 110 mg/kg, listed as Sample 4/(+)isomer
  Protection against stage 3 convulsions (% protection): 30%
[1]; [12]
  convulsive manifestations (points) induced by pentylenetetrazol (X ± SE): 2.5 ± 0.31 points
[1]; sample dose 150 mg/kg intragastrically 2 hours before pentylenetetrazol 110 mg/kg, listed as Sample 4/(+) isomer
  convulsive manifestations (points) induced by pentylenetetrazol (X ± SE): 2.6 ± 0.31 points
[1]; [13]
  Protection against stage 3 convulsions (% protection): 70%
  Protection against stage 4 convulsions (% protection): 100%
  Protection against stage 5 convulsions (% protection): 100%
[1]; [22]
  Protection against stage 3 convulsions (% protection): 50%
  Protection against stage 4 convulsions (% protection): 90%
[1]; [14]
  convulsive manifestations (points) induced by pentylenetetrazol (X ± SE): 1.9 ± 0.28 points
[1]; sample dose 250 mg/kg intragastrically 2 hours before pentylenetetrazol 110 mg/kg, listed as Sample 4/(+) isomer
  convulsive manifestations (points) induced by pentylenetetrazol (X ± SE): 2.5 ± 0.27 points
